Measured values published in patent US8106055B2, “Substituted amide compounds” (Gruenenthal GmbH, priority 2007, dated 2012).
Where two headings read alike, the source gives them in different places.

Columns and labels:
[1] = target: T1, bradykinin 1 receptor (B1R) of the rat (Rattus norvegicus, UniProt P97583); assay: Functional investigation on the rat bradykinin 1 receptor (B1R), Ca2+ FLIPR assay in CHO K1 rB1R cells; assay type: cell-based; settings: CHO-K1, B1R antagonism rat, test substance 10 μM, read-out: B1R Ant. r [10 μM] % Inhibition
T1 construct: expressed in transfected cells; host or cells: CHO K1 cells
T1 sequence (P97583 1-337): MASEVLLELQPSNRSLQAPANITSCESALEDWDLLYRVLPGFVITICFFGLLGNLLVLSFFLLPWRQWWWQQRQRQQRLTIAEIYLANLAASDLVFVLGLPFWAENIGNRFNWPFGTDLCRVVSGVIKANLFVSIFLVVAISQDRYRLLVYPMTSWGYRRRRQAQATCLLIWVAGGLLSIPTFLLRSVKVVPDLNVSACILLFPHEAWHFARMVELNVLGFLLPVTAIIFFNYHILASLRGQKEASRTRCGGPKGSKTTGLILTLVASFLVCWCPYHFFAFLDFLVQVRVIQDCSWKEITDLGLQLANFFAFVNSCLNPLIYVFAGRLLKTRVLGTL
Summary of the method: (§1)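 Stably transfected CHO K1 cells loaded with Fluo-4; FLIPR Ca2+ fluorescence peak (ex 488/em 540 nm). Compound added first (agonism vs Lys-Des-Arg9-bradykinin ≥50 nM human, Des-Arg9-bradykinin 10 μM rat), then after 10-20 min agonist at EC80; antagonism as % inhibition, IC50 from concentration series, n=2-3, N≥2.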

[2] = target: T2, human bradykinin 1 receptor (B1R) (Homo sapiens, UniProt P46663); assay: Functional investigation on the human bradykinin 1 receptor (B1R), Ca2+ FLIPR assay in CHO K1 hB1R cells; assay type: cell-based; settings: CHO-K1, B1R antagonism human, test substance 10 μM, read-out: B1R Ant. h [10 μM] % Inhibition
T2 construct: expressed in transfected cells; host or cells: CHO K1 cells
T2 sequence (P46663 1-353): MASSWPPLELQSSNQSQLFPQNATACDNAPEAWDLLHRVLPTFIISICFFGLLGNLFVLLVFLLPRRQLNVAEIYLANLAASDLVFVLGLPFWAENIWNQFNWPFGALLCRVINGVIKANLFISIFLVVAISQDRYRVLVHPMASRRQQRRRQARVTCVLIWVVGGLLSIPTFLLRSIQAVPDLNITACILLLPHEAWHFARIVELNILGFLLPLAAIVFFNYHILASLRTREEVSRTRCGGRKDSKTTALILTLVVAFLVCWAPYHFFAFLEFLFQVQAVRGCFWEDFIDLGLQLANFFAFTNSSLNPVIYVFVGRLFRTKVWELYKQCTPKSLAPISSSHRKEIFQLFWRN
Summary of the method: as §1

human μ opiate receptor = target: T3, human μ opiate receptor (Homo sapiens, UniProt P35372); assay: Affinity for the human μ opiate receptor ([3H]-naloxone displacement, CHO-K1 receptor membrane preparation, SPA); assay type: binding; settings: 1.5 h, test concentration 1 μM
T3 construct: purchased PerkinElmer Life Sciences, Zaventem, Belgium RB-HOM; host or cells: CHO-K1 cells (membrane preparation)
T3 sequence (P35372 whole entry): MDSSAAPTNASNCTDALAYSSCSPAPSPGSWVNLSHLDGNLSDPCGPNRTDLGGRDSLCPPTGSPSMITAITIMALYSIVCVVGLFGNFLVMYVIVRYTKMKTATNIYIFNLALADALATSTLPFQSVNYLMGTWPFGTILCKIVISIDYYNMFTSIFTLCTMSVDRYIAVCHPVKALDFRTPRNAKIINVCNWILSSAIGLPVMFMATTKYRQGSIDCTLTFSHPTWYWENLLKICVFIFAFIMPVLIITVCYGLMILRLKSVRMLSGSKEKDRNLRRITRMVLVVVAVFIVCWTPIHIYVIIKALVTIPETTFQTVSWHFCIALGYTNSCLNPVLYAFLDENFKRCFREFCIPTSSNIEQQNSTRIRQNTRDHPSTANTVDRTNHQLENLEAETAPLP
Summary of the method: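 CHO-K1 membranes expressing human μ receptor incubated 90 min at room temperature with 1 nmol/l [3H]-naloxone and WGA-SPA beads in 50 mmol/l Tris-HCl, 0.06% BSA; 100 μmol/l naloxone defines non-specific binding. Values are % inhibition of specific binding at 1 μM; IC50 converted to Ki by Cheng-Prusoff.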

[3] = % inhibition compared with the maximum achievable inhibition
[4] = Table 3, to be read in the same way as Table 1, read-out: μ

| Compound | inhibition at 10 µM [1, 3] | inhibition at 10 µM [2, 3] | inhibition at 1 µM (human μ opiate receptor; [4]) | inhibition at 10 µM ([1]; Ca2+ FLIPR, CHO K1 rB1R cells) | inhibition at 10 µM ([2]; Ca2+ FLIPR, CHO K1 hB1R cells) | inhibition at 1 µM (human μ opiate receptor; Table 2, read-out: μ receptor) |
| --- | --- | --- | --- | --- | --- | --- |
| COc1cc(C)c(S(=O)(=O)N2CCCCC2COCC(=O)N2CCC(C(c3ccccc3)N3CCN(C)CC3)CC2)c(C)c1 (stereo not drawn) [Example 807, 2-((1-(4-methoxy-2,6-dimethylphenylsulfonyl)piperidin-2-yl)methoxy)-1-(4-((4-methylpiperazin-1-yl)(phenyl)methyl)piperidin-1-yl)ethanone] | 98% | 105% | 11% | – | – | – |
| CN(CCOCC(=O)NCC1CCC(C(CCc2ccccc2)N2CCCC2)CC1)S(=O)(=O)c1c(Cl)cc(Cl)cc1Cl (stereo not drawn) [Example 640, N-((4-(3-phenyl-1-(pyrrolidin-1-yl)propyl)cyclohexyl)methyl)-2-(2-(2,4,6-trichloro-N-methylphenylsulfonamido)ethoxy)acetamide] | – | – | 27% | 63% | 101% | – |
| CN(CCOCC(=O)NC1CCC(C(c2ccccc2)N2CCCC2)CC1)S(=O)(=O)c1ccc(Cl)cc1Cl (stereo not drawn) [Example 627, 2-(2-(2,4-dichloro-N-methylphenylsulfonamido)ethoxy)-N-(4-(phenyl(pyrrolidin-1-yl)methyl)cyclohexyl)acetamide] | – | – | 69% | 35% | 75% | – |
| CN(C)C(c1ccccc1)C1CCC(CNC(=O)COC2CCCN(S(=O)(=O)c3c(Cl)cc(Cl)cc3Cl)C2)CC1 (stereo not drawn) [Example 621, N-[4-(dimethylaminophenylmethyl)-cyclohexylmethyl]-2-[1-(2,4,6-trichlorobenzenesulfonyl)-piperidin-3-yloxy]-acetamide] | – | – | – | 0% | 88% | 90% |
| COc1cc(C)c(S(=O)(=O)N2CCCC2COCC(=O)NCC2CCC(C(CCc3ccccc3)N3CCOCC3)CC2)c(C)c1 (stereo not drawn) [Example 749, 2-((1-(4-methoxy-2,6-dimethylphenylsulfonyl)pyrrolidin-2-yl)methoxy)-N-((4-(1-morpholino-3-phenylpropyl)cyclohexyl)methyl)acetamide] | – | – | 12% | 109% | 103% | – |
| COc1cc(C)c(S(=O)(=O)N(C)CCOCC(=O)NC2CCC(C(c3ccccc3)N3CCCCC3)CC2)c(C)c1C (stereo not drawn) [Example 617, 2-{2-[(4-methoxy-2,3,6-trimethylbenzenesulfonyl)-methylamino]-ethoxy}-N-[4-(phenylpiperidin-1-yl-methyl)-cyclohexyl]-acetamide] | – | – | – | 48% | 86% | 29% |
| CN(CCOCC(=O)NC1CCC(C(CCc2ccccc2)N2CCOCC2)CC1)S(=O)(=O)c1c(Cl)cc(Cl)cc1Cl (stereo not drawn) [Example 636, N-(4-(1-morpholino-3-phenylpropyl)cyclohexyl)-2-(2-(2,4,6-trichloro-N-methylphenylsulfonamido)ethoxy)acetamide] | – | – | 8% | 16% | 41% | – |
| CN1CCN(C(c2ccccc2)C2CCC(NC(=O)COCC3CCCCN3S(=O)(=O)c3c(Cl)cc(Cl)cc3Cl)CC2)CC1 (stereo not drawn) [Example 739, N-(4-((4-methylpiperazin-1-yl)(phenyl)methyl)cyclohexyl)-2-((1-(2,4,6-trichlorophenylsulfonyl)piperidin-2-yl)methoxy)acetamide] | – | – | 62% | 87% | 104% | – |
| COc1cc(C)c(S(=O)(=O)N2CCCCC2COCC(=O)NC2CCC(C(c3ccccc3)N3CCOCC3)CC2)c(C)c1 (stereo not drawn) [Example 699, 2-((1-(4-methoxy-2,6-dimethylphenylsulfonyl)piperidin-2-yl)methoxy)-N-(4-(morpholino(phenyl)methyl)cyclohexyl)acetamide] | – | – | 15% | 104% | 90% | – |
| CN(CCOCC(=O)NC1CCC(C(CCc2ccccc2)N2CCOCC2)CC1)S(=O)(=O)c1ccc(Cl)cc1Cl (stereo not drawn) [Example 660, 2-(2-(2,4-dichloro-N-methylphenylsulfonamido)ethoxy)-N-(4-(1-morpholino-3-phenylpropyl)cyclohexyl)acetamide] | – | – | 4% | 12% | 30% | – |
